Assay results from PubChem BioAssay (NCI).
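The compound was tested at five concentrations on cells cultured in 96-well plates, with a 48-hour exposure period. Abbreviation: GI50, concentration required for 50% inhibition of growth. TGI denotes the concentration required for complete inhibition of growth.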

Key:
Assay in all cases: NCI tumour cell line growth inhibition, 48 h
KM12 colon = tested on: KM12 colon
NCI/ADR-RES ovarian = tested on: NCI/ADR-RES ovarian
SK-OV-3 ovarian = tested on: SK-OV-3 ovarian
NCI-H522 lung = tested on: NCI-H522 lung
KM20L2 colon = tested on: KM20L2 colon
EKVX NSCLC = tested on: EKVX NSCLC
UACC-257 melanoma = tested on: UACC-257 melanoma
OVCAR-5 ovarian = tested on: OVCAR-5 ovarian
HT29 colon = tested on: HT29 colon
NCI-H226 lung = tested on: NCI-H226 lung
SK-MEL-5 melanoma = tested on: SK-MEL-5 melanoma
SF-539 CNS = tested on: SF-539 CNS
MOLT-4 leukemia = tested on: MOLT-4 leukemia
XF 498 CNS = tested on: XF 498 CNS
K-562 leukemia = tested on: K-562 leukemia
CCRF-CEM leukemia = tested on: CCRF-CEM leukemia
M19-MEL melanoma = tested on: M19-MEL melanoma
DLD-1 colon = tested on: DLD-1 colon
MALME-3M melanoma = tested on: MALME-3M melanoma
UO-31 renal = tested on: UO-31 renal
NCI-H460 lung = tested on: NCI-H460 lung
SF-268 CNS = tested on: SF-268 CNS
SF-295 CNS = tested on: SF-295 CNS
NCI-H23 lung = tested on: NCI-H23 lung
HOP-62 NSCLC = tested on: HOP-62 NSCLC
P388/ADR leukemia = tested on: P388/ADR leukemia
MCF7 breast = tested on: MCF7 breast
A549 NSCLC = tested on: A549 NSCLC
SW-620 colon = tested on: SW-620 colon
SK-MEL-28 melanoma = tested on: SK-MEL-28 melanoma
HCT-15 colon = tested on: HCT-15 colon
RXF 393 renal = tested on: RXF 393 renal
CAKI-1 renal = tested on: CAKI-1 renal
HL-60(TB) leukemia = tested on: HL-60(TB) leukemia
SK-MEL-2 melanoma = tested on: SK-MEL-2 melanoma
OVCAR-8 ovarian = tested on: OVCAR-8 ovarian
LOX IMVI melanoma = tested on: LOX IMVI melanoma
OVCAR-4 ovarian = tested on: OVCAR-4 ovarian
UACC-62 melanoma = tested on: UACC-62 melanoma
HOP-92 NSCLC = tested on: HOP-92 NSCLC
SNB-75 CNS = tested on: SNB-75 CNS
P388 leukemia = tested on: P388 leukemia
SN12C renal = tested on: SN12C renal
COLO 205 colon = tested on: COLO 205 colon
HCT-116 colon = tested on: HCT-116 colon
SN12K1 renal = tested on: SN12K1 renal
SNB-19 CNS = tested on: SNB-19 CNS
HOP-18 NSCLC = tested on: HOP-18 NSCLC
SNB-78 CNS = tested on: SNB-78 CNS
RPMI-8226 leukemia = tested on: RPMI-8226 leukemia
A498 renal = tested on: A498 renal
HCC-2998 colon = tested on: HCC-2998 colon
DMS 273 small cell lung = tested on: DMS 273 small cell lung
OVCAR-3 ovarian = tested on: OVCAR-3 ovarian
DMS 114 small cell lung = tested on: DMS 114 small cell lung
IGROV1 ovarian = tested on: IGROV1 ovarian
U251 CNS = tested on: U251 CNS
DU-145 prostate = tested on: DU-145 prostate
786-0 renal = tested on: 786-0 renal
T-47D breast = tested on: T-47D breast
PC-3 prostate = tested on: PC-3 prostate
SR leukemia = tested on: SR leukemia
TK-10 renal = tested on: TK-10 renal
M14 melanoma = tested on: M14 melanoma
ACHN renal = tested on: ACHN renal
BT-549 breast = tested on: BT-549 breast
MDA-MB-435 = tested on: MDA-MB-435
HS 578T breast = tested on: HS 578T breast
MDA-MB-231 breast = tested on: MDA-MB-231 breast

SMILES: CCCSCC(P(=O)(O)O)P(=O)(O)O
- TGI (KM12 colon): > 100 µM
- TGI (NCI/ADR-RES ovarian): > 100 µM
- TGI (SK-OV-3 ovarian): > 100 µM
- TGI (NCI-H522 lung): > 100 µM
- TGI (KM20L2 colon): > 100 µM
- TGI (EKVX NSCLC): > 100 µM
- TGI (UACC-257 melanoma): > 100 µM
- TGI (OVCAR-5 ovarian): > 100 µM
- TGI (HT29 colon): > 100 µM
- TGI (NCI-H226 lung): > 100 µM
- TGI (SK-MEL-5 melanoma): > 100 µM
- TGI (SF-539 CNS): > 100 µM
- TGI (MOLT-4 leukemia): > 100 µM
- TGI (XF 498 CNS): > 100 µM
- TGI (K-562 leukemia): > 100 µM
- TGI (CCRF-CEM leukemia): > 100 µM
- TGI (M19-MEL melanoma): > 100 µM
- TGI (DLD-1 colon): > 100 µM
- TGI (MALME-3M melanoma): > 100 µM
- TGI (UO-31 renal): > 100 µM
- TGI (NCI-H460 lung): > 100 µM
- TGI (SF-268 CNS): > 100 µM
- TGI (SF-295 CNS): > 100 µM
- TGI (NCI-H23 lung): > 100 µM
- TGI (HOP-62 NSCLC): > 100 µM
- TGI (P388/ADR leukemia): > 100 µM
- TGI (MCF7 breast): > 100 µM
- TGI (A549 NSCLC): > 100 µM
- TGI (SW-620 colon): > 100 µM
- TGI (SK-MEL-28 melanoma): > 100 µM
- TGI (HCT-15 colon): > 100 µM
- TGI (RXF 393 renal): > 100 µM
- TGI (CAKI-1 renal): > 100 µM
- TGI (HL-60(TB) leukemia): > 100 µM
- TGI (SK-MEL-2 melanoma): > 100 µM
- TGI (OVCAR-8 ovarian): > 100 µM
- TGI (LOX IMVI melanoma): > 100 µM
- TGI (OVCAR-4 ovarian): > 100 µM
- TGI (UACC-62 melanoma): > 100 µM
- TGI (HOP-92 NSCLC): > 100 µM
- TGI (SNB-75 CNS): > 100 µM
- TGI (P388 leukemia): > 100 µM
- TGI (SN12C renal): > 100 µM
- TGI (COLO 205 colon): > 100 µM
- TGI (HCT-116 colon): > 100 µM
- TGI (SN12K1 renal): > 100 µM
- TGI (SNB-19 CNS): > 100 µM
- TGI (HOP-18 NSCLC): > 100 µM
- TGI (SNB-78 CNS): > 100 µM
- TGI (RPMI-8226 leukemia): > 100 µM
- TGI (A498 renal): > 100 µM
- TGI (HCC-2998 colon): > 100 µM
- TGI (DMS 273 small cell lung): > 100 µM
- TGI (OVCAR-3 ovarian): > 86.9 µM
- TGI (DMS 114 small cell lung): > 100 µM
- TGI (IGROV1 ovarian): > 100 µM
- TGI (U251 CNS): > 100 µM

SMILES: Nc1ncnc2c1nnn2C1OC(CO)C(O)C1O (centres undefined)
- TGI (KM12 colon): 6.68 µM
- TGI (NCI/ADR-RES ovarian): 9.32 µM
- TGI (SK-OV-3 ovarian): 1.95 µM
- TGI (NCI-H522 lung): 4.51 µM
- TGI (KM20L2 colon): > 74.3 µM
- TGI (EKVX NSCLC): 27.5 µM
- TGI (UACC-257 melanoma): 10.9 µM
- TGI (OVCAR-5 ovarian): 15.4 µM
- TGI (HT29 colon): 21.9 µM
- TGI (NCI-H226 lung): 12 µM
- TGI (SK-MEL-5 melanoma): 5.63 µM
- TGI (SF-539 CNS): 9.04 µM
- TGI (MOLT-4 leukemia): 22.2 µM
- TGI (XF 498 CNS): 47.3 µM
- GI50 (DU-145 prostate): 0.144 µM
- TGI (DU-145 prostate): 1.91 µM
- TGI (K-562 leukemia): 13.9 µM
- GI50 (786-0 renal): 0.38 µM
- TGI (786-0 renal): 14 µM
- TGI (CCRF-CEM leukemia): 27.9 µM
- TGI (M19-MEL melanoma): 39.2 µM
- TGI (DLD-1 colon): 25.5 µM
- TGI (MALME-3M melanoma): 4.62 µM
- TGI (UO-31 renal): 6.02 µM
- TGI (NCI-H460 lung): 5.64 µM
- TGI (SF-268 CNS): 18.8 µM
- TGI (SF-295 CNS): 7.59 µM
- GI50 (T-47D breast): 0.265 µM
- TGI (T-47D breast): 4.81 µM
- TGI (NCI-H23 lung): 10.8 µM
- TGI (HOP-62 NSCLC): 5.78 µM
- GI50 (PC-3 prostate): 0.247 µM
- TGI (PC-3 prostate): 5.38 µM
- GI50 (SR leukemia): 0.049 µM
- TGI (SR leukemia): > 12.7 µM
- TGI (P388/ADR leukemia): 26.7 µM
- TGI (MCF7 breast): 16.8 µM
- TGI (A549 NSCLC): 19.2 µM
- TGI (SW-620 colon): 8.35 µM
- TGI (SK-MEL-28 melanoma): 14.9 µM
- TGI (HCT-15 colon): 20.6 µM
- GI50 (RXF 393 renal): 0.271 µM
- TGI (RXF 393 renal): 1.51 µM
- GI50 (TK-10 renal): 0.151 µM
- TGI (TK-10 renal): 3.39 µM
- TGI (CAKI-1 renal): 2.88 µM
- TGI (HL-60(TB) leukemia): 2.16 µM
- TGI (SK-MEL-2 melanoma): 1.74 µM
- TGI (OVCAR-8 ovarian): 8.97 µM
- TGI (LOX IMVI melanoma): 3.77 µM
- GI50 (M14 melanoma): 0.261 µM
- TGI (M14 melanoma): 4.91 µM
- TGI (OVCAR-4 ovarian): 8.48 µM
- TGI (UACC-62 melanoma): 4.72 µM
- TGI (HOP-92 NSCLC): 7 µM
- TGI (SNB-75 CNS): 16.9 µM
- TGI (P388 leukemia): 16.1 µM
- TGI (SN12C renal): 6.77 µM
- TGI (COLO 205 colon): 2.73 µM
- TGI (HCT-116 colon): 10.5 µM
- TGI (SN12K1 renal): 9.58 µM
- TGI (SNB-19 CNS): > 52.5 µM
- GI50 (ACHN renal): 0.141 µM
- TGI (ACHN renal): 8.84 µM
- GI50 (BT-549 breast): 0.496 µM
- TGI (BT-549 breast): 5.75 µM
- GI50 (MDA-MB-435): 0.273 µM
- TGI (MDA-MB-435): 2.44 µM
- TGI (HOP-18 NSCLC): 11.8 µM
- GI50 (HS 578T breast): 0.467 µM
- TGI (HS 578T breast): 4.72 µM
- TGI (SNB-78 CNS): > 100 µM
- TGI (RPMI-8226 leukemia): 5.71 µM
- TGI (A498 renal): 5.68 µM
- GI50 (MDA-MB-231 breast): 0.232 µM
- TGI (MDA-MB-231 breast): 3.99 µM
- TGI (HCC-2998 colon): 5.32 µM
- TGI (DMS 273 small cell lung): 13.6 µM
- TGI (OVCAR-3 ovarian): 9.26 µM
- TGI (DMS 114 small cell lung): 17.1 µM
- TGI (IGROV1 ovarian): 3.95 µM
- TGI (U251 CNS): 37.8 µM
